Assay results reported in patent US20240316064A1, “USE OF ESTRETOL AS A TREATMENT FOR ENDOMETRIOSIS” (UNIVERSIDAD BERNANDO O'HIGGINS, priority 2021, published 2024).

Experiments:
11Z epithelial cells [1] = experiment: PARP cleavage rate (apoptosis), Western blot, 11Z cells; type: cell-based; conditions: 24 h incubation, most estetrol and estradiol concentrations
Procedure: (§1) FIG. 1. […] (A) Western blot analysis against PARP and β-actin after 24 h incubation (B) MTS assay after 24 h incubation (C) Scratch assay. […] The experiments were performed on 2 cell lines, Hs832, endometrial stromal cells and 11Z cells, endometrial epithelium cells.

Hs832 stromal cell line [2] = experiment: PARP cleavage rate (apoptosis), Western blot, Hs832 cells; type: cell-based; conditions: 24 h incubation, almost all estetrol concentrations (except 108M)
Procedure: as §1

11Z epithelial cells [3] = experiment: MTS cell viability assay, 11Z cells; type: cell-based; conditions: 24 h, all estetrol concentrations tested
Procedure: (§2) FIG. 1. Evaluation of apoptosis, cell viability and migration after treatments with E2 and E4 in endometriotic cells. (A) Western blot analysis against PARP and β-actin after 24 h incubation (B) MTS assay after 24 h incubation (C) Scratch assay.
(§3) To assess cell viability, the MTS assay was performed after 24 h.

Hs832 stromal cell line [4] = experiment: MTS cell viability assay, Hs832 cells; type: cell-based; conditions: 24 h, all estetrol concentrations tested
Procedure: as §2, §3

11Z cells = experiment: Wound (scratch) migration assay, 11Z cells; type: cell-based; conditions: estetrol 10^−6, any time point studied
Procedure: as §2

Hs832 cells = experiment: Wound (scratch) migration assay, Hs832 cells; type: cell-based; conditions: Hs832, estetrol 10^−6, any time point studied
Procedure: as §2

ERα = ERα protein levels by Western blot in endometriotic cells; type: cell-based; conditions: most of the concentrations used
ER β = experiment: ERβ protein levels by Western blot in endometriotic cells; type: cell-based
ERα/ERβ ratio = ERα/ERβ ratio of protein levels in endometriotic cells; type: cell-based; conditions: versus control and estradiol conditions
PRB = PRB protein levels by Western blot in endometriotic cells; type: cell-based
[5] = test system: genes associated with the progesterone signaling pathway; experiment: PCR array for progesterone-regulated genes in Hs832 cells; type: cell-based; conditions: 24 h E4 (10^−6M) then 6h pulse with P4 (10^−7M), versus P4 without pre-treatment; for expression of PTGER2, NF1, MUC1, TWIST1 and SNAI1: change to a lesser extent
Procedure: FIG. 4. PCR Array Analysis for Progesterone-Regulated Genes in Endometrial Cells, Hs832 Cells. The expression of genes regulated by progesterone (P4) is compared, when incubating with P4 without previous treatment or with a 24 hour treatment with Estetrol.
Procedure: Hs832 endometriosis cells were incubated for 24 h with E4 (10^−6M) or vehicle (ethanol) as a control, then both cells received a 6h pulse with P4 (10^−7M) to then extract their messenger RNA in order to evaluate the levels. expression of 24 genes associated with the progesterone signaling pathway.

PRA = PRA protein levels by Western blot in endometriotic cells

**Q.** For `C[C@]12CC[C@@H]3c4ccc(O)cc4CC[C@H]3[C@@H]1[C@@H](O)[C@@H](O)[C@@H]2O` [estetrol], which “PARP cleavage rate (apoptosis)” value (11Z epithelial cells [1]) is on record?
**A.** apoptosis was reduced

**Q.** What about the “PARP cleavage rate (apoptosis)” value (Hs832 stromal cell line [2]) of the same compound?
**A.** significant decrease

**Q.** And the “changes in cell viability compared to controls (MTS)” value (11Z epithelial cells [3])?
**A.** None of the estetrol concentrations tested showed changes

**Q.** And the “changes in cell viability compared to controls (MTS)” value (Hs832 stromal cell line [4])?
**A.** None of the estetrol concentrations tested showed changes

**Q.** What about the “migration (wound assay)” value (11Z cells) of the same compound?
**A.** showed no difference from the control

**Q.** What about the “migration (wound assay)” value (Hs832 cells) of the same compound?
**A.** showed no difference from the control

**Q.** And the “ERα levels over β-actin” value (ERα; 11Z, estetrol)?
**A.** robust increase

**Q.** And the “ERα levels over β-actin” value (ERα; Hs832, estetrol)?
**A.** robust increase

**Q.** And the “ER protein levels (ER β levels over β-actin, FIG. 2B)” value (ER β; 11Z, estetrol, most concentrations used)?
**A.** reduced levels

**Q.** What about the “ER protein levels (ER β levels over β-actin, FIG. 2B)” value (ER β; Hs832, estetrol, all conditions) of the same compound?
**A.** reduced levels

**Q.** And the ERα/ERβ ratio (ERα/ERβ ratio; 11Z cells, estetrol 10^−7/10^−6/10^−5M)?
**A.** significantly increases

**Q.** And the ERα/ERβ ratio (ERα/ERβ ratio; Hs832 cells, estetrol 10^−9/10^−7M)?
**A.** significantly increases

**Q.** What about the “PRB protein levels over β-actin” value (PRB; 11Z cells, estetrol, all concentrations used) of the same compound?
**A.** more consistent increase

**Q.** What about the “PRB protein levels over β-actin” value (PRB; HsS32, estetrol 10^−6/10^−5M) of the same compound?
**A.** more consistent increase

**Q.** What about the “decrease of expression of FGF12, GCFC2, PWP1, ITGA6, ZEB1, POSTN and FKBP25” value [5] of the same compound?
**A.** to a lesser extent

**Q.** And the “expression of NFIX, GNRFI1, ESR1, MEF2D and I HH” value [5]?
**A.** stimulating the expression

**Q.** And the “expression of PRL, SNAI2, RAD54L, HES1, ABCG2, TCF4” value [5]?
**A.** strongly decreasing

**Q.** And the “expression of PTGER2, NF1, MUC1, TWIST1 and SNAI1” value [5]?
**A.** increase

**Q.** What about the “expression of PTGER2, NF1, MUC1, TWIST1 and SNAI1” value ([5]; listed as E4) of the same compound?
**A.** increases

**Q.** What about the “expression of PRL, SNAI2, RAD54L, HES1, ABCG2, TCF4” value ([5]; listed as E4) of the same compound?
**A.** strongly decreases

**Q.** And the “PRA protein levels over β-actin” value (PRA; 11Z, estetrol 10^−9/10^−8M)?
**A.** increase

**Q.** And the “PRA protein levels over β-actin” value (PRA; Hs832, estetrol 10^−5M)?
**A.** increase

**Q.** And the “PRA protein levels over β-actin” value (PRA; HsS32, estetrol 10^−9/10^−7M)?
**A.** decreased
